{"source": "patent US12084601B2", "about": "“Packaging patches having disinfecting sealing layer” (AMCOR FLEXIBLES NORTH AMERICA, INC., priority 2017, dated 2024)", "origin": "cited, not measured here"}
{"smiles": "[O][Cl+][O-]", "note": "[chlorine dioxide]", "values": [{"measurement": "Half-life of chlorine dioxide degradation (first order kinetics)", "setting": "ambient room light and temperature, depending on initial ClO2 concentration", "result": "2 to 3", "unit": "h"}, {"measurement": "Time for chlorine dioxide concentration in the package to reach levels sufficiently low for safe opening", "setting": "spontaneous degradation, prior packages", "result": "12 to 48", "unit": "h"}]}
